{
  "source": "patent EP2695600A1",
  "about": "“Dermal cosmetic compositions having osmoprotecting activity” (Unifarco S.p.A., priority 2012, dated 2014)",
  "key": {"[1]": {"system": "Reconstructed Human Epidermis (RHE)", "experiment": "LDH quantification (membrane integrity / viability) in cold-stress epidermal dryness model", "format": "cell-based", "from_the_text": "(§1) An experimental model of epidermal dryness, induced by modified room humidity and temperature conditions, has been used to assess the efficacy of 3 cosmetic products characterized by the following compositions SOLUTION 1 Water + trehalose 1% SOLUTION 2 Water + ectoine 0,5% SOLUTION 3 Water + ectoine 0,5% + trehalose 1%.\n(§2) SkinEthic® Reconstructed Human Epidermis (RHE) of 0,5 cm^2 is a fully differentiated epidermis formed after 17 day of air-lift culture of NHK from skin biopsies in a chemically defined medium. The model reproduces epidermal morphology and it has been fully characterized. The good barrier function, batch reproducibility and low variability in terms of permeability for probe molecules have been described in the Literature compared to human ex-vivo models.\nImmediately after arrival in the laboratory, the RHE were transferred to a 6-well plate previously filled with maintenance medium (1 mL/well) at room temperature and incubated at 37°C, 5% CO2, saturated humidity. The test has been started the day after the arrival.\nThe cell membrane forms a functional barrier around the cell, and traffic into and out of the cell is highly regulated by transporters, receptors and secretion pathways. When cells are damaged, they become 'leaky' and this forms the basis for the second type of assay. Membrane integrity is determined by measuring lactate dehydrogenase (LDH) in the extracellular medium. This enzyme is normally present in the cytosol, and cannot be measured extracellularly unless cell damage has occurred. […] The culture supernatant is collected and incubated with the reaction mixture including the kit (20 min, room T°, in the dark). An increase in the amount of dead or plasma membrane-damaged cells results in an increase of the LDH enzyme activity in the culture media. This increase in the amount of enzyme activity in the supernatant directly correlates to the amount of formazan formed during a defined time period therefore, the amount of color formed in the assay is proportional to the number of lysed cells.\nThe higher optical density has been quantified in the media of stressed RHE and used as 100 % higher citotoxicity value."}, "[2]": {"system": "AQP3", "experiment": "Real time PCR, AQP3 gene expression in RHE", "format": "cell-based, Human", "conditions": "for AQP3 (RQ): cold stressed RHE", "from_the_text": "as §1, §2\n(§3) For the three steps, ready to use reagents were used. The RNAqueous method is a rapid, phenol free, filter based RNA isolation system used to extract the total RNA from cellular samples. The High Capacity cDNA Reverse Transcription kit was used to synthetize cDNA from RNA. The instrument Applied Biosystems 7500 Fast Real Time PCR with fluorescent-based PCR chemistry, the TaqMan assay, was used to study gene expression of significant biomarkers. Gene expression is the process by which the inheritable information in a gene, such as the DNA sequence, is made into a functional gene product, such as protein or RNA. Relative quantification determines the change in the expression of a nucleic acid sequence in a test sample relative to the same sequence in a calibrator sample. Beta-actin was used as an endogenous control gene to normalize input amounts.\n(§4) Each replicate was assessed in triplicate. At the 2X TaqMan Fast Universal PCR Master Mix was added Taqman gene expression assay and cDNA (25 ng) for a total volume of 25 µL. The Thermal condition steps in the ABI PRISM 7500 Fast are: 95°C 20 sec; 40 cycles (95°C 3 sec +60°C 30 sec).\n(§5) Fluorescence data of the RT-PCR generated by the thermocycler ABI PRISM 7500 Fast, are collected by the internal software SDS 2.0.5 and the Raw Data (RQ study results) are printed and exported in Excel.\n(§6) Because each cycle in the PCR reaction corresponds to a 2-fold increase in PCR product, a difference of one in threshold cycle number represents a 2-fold difference in the expression of a particular gene compared to the calibrator sample and can be considered as significant. 95% of confidence level is used by the software to calculate the errors.\n(§7) The cold stress performed by 30' induction at -20°C corresponds to a block of water flux: the treatment has been done at this moment and followed by 16h and 48h recovery allowing to monitor the dynamic of the genomic response and to study product mechanism of action: the fig.3 described RHE's physiological response of saline solution treatment and glycerol compared to the RHE physiological response of the same treated with SOLUTIONS 1,2,3."}, "[3]": {"system": "HSP1A1", "experiment": "Real time PCR, HSP1A1 (HSP 72) gene expression in RHE", "format": "cell-based, Human", "conditions": "for HSP 72 (RQ): cold stressed RHE, calibrator stressed saline =1 (Fig. 7)", "from_the_text": "as §1, §2, §3, §4, §5, §6, §7"}},
  "data": [
    {"smiles": "OCC(O)CO", "note": "[Glycerin 5%, Glycerin]", "values": [
      {"measurement": "citotoxicity (LDH release), verbal assessment", "setting": "[1]; 16h and 48h, standard conditions (for Glycerin 5% also stressed conditions)", "value": "not citotoxic"},
      {"measurement": "% VIABILITY", "setting": "[1]; STANDARD conditions (without stress), 30 MIN + 16H", "value": "96,08%"},
      {"measurement": "% VIABILITY", "setting": "[1]; STANDARD conditions (without stress), 30 MIN + 48H", "value": "63,14%"},
      {"measurement": "% VIABILITY", "setting": "[1]; cold stressed RHE (30 MIN at -20°C), product applied, 16H recovery", "value": "80,70%"},
      {"measurement": "% VIABILITY", "setting": "[1]; cold stressed RHE (30 MIN at -20°C), product applied, 48H recovery", "value": "61,11%"},
      {"measurement": "AQP3 Gene expression (RQ)", "setting": "[2]; applied after 30' stress induction, 48h recovery, calibrator CONTROL RHE CN=1 (Fig. 3)", "value": "reduced"},
      {"measurement": "AQP3 (RQ)", "setting": "[2]; 16H recovery, calibrator RHE STRESSED SALINE =1", "value": "0,437"},
      {"measurement": "AQP3 (RQ)", "setting": "[2]; 48H recovery, calibrator RHE STRESSED SALINE =1 (Fig. 4), 2880 min", "value": "0,409"},
      {"measurement": "AQP3 (RQ)", "setting": "[2]; 48H recovery, calibrator RHE STRESSED SALINE =1 (Fig. 4), listed as Glycerol 5%", "value": "reduced"},
      {"measurement": "AQP3 Gene expression (RQ)", "setting": "[2]; non stressed but treated RHE, standard conditions, 16h, calibrator CN 16h=1 (Fig. 1)", "value": "significantly reduced"},
      {"measurement": "AQP3 Gene expression (RQ)", "setting": "[2]; non stressed but treated RHE, standard conditions, 48h, calibrator CN 48h=1 (Fig. 1)", "value": "1,694"},
      {"measurement": "HSP 72 (RQ)", "setting": "[3]; 16H recovery", "value": "down-regulation"},
      {"measurement": "HSP 72 (RQ)", "setting": "[3]; 16H recovery, 960 min", "value": "0,139"},
      {"measurement": "HSP 72 (RQ)", "setting": "[3]; 48H recovery", "value": "0,437"},
      {"measurement": "HSP1A1 Gene expression", "setting": "[3]; non stressed but treated RHE, standard condition, 16h, calibrator CN 16h=1 (Fig. 5)", "value": "significantly reduced"},
      {"measurement": "HSP1A1 (HSP 72) Gene expression", "setting": "[3]; not stressed RHE, 48h treatment, calibrator CN 48h=1 (Fig. 5)", "value": "over expression"},
      {"measurement": "HSP 72 expression", "setting": "[3]; stressed RHE, 16h recovery, calibrator positive stressed control (Fig. 6)", "value": "reduced"}
    ]}
  ]
}
